In publication PMC9161086, “Water-Soluble Trichogin GA IV-Derived Peptaibols Protect Tomato Plants From Botrytis cinerea Infection With Limited Impact on Plant Defenses” (Frontiers in Plant Science, 2022):

Assay: Hydrophilicity evaluated from HPLC retention times
Format: physicochemical
Settings: comparison to native Trichogin GA IV, C18 column Phenomenex Jupiter 5 μm, 300 Å, 250 × 4.5 mm, gradient 60%–100% B in 30 min, A H2O/CH3CN 9:1 0.05% TFA, B CH3CN/H2O 9:1 0.05% TFA

1-octanoyl-Aib-Gly-Leu-Aib-Gly-Gly-Leu-Aib-Gly-Ile-Lol [Trichogin GA IV, 11-residue lipopeptaibol naturally produced by Trichoderma longibrachiatum]
Hydrophilicity: Native
